Results from patent US6924311B2, “Methods for affecting various diseases utilizing LXR compounds” (X-Ceptor Therapeutics, Inc., priority 2001, dated 2005).

Tests used:
[1] = Plasma triglyceride levels in wildtype and LXR knockout mice after oral dosing; type: in vivo; settings: 10 mg/kg daily oral gavage, 7 days
From the text: (§1) To decipher the physiological roles of LXRα and LXRβ mice, seven different lines of mice encompassing four unique LXR genotypes (LXRα+/+, LXRβ+/+=wildtype; LXRα−/−, LXRβ+/+=LXRα−/−; LXRα+/+, LXRβ−/−=LXRβ−/−; LXRα−/−, LXRβ−/−=LXRαβ−/−) were studied. Genetic knockouts of LXRα( LXRα−/−) were generated in two independent mouse strain backgrounds (C57BL/6 and A129). Genetic knockouts of LXRβ (LXRβ−/−) and the double knockout of LXRα and LXRβ (LXRαβ−/−) were generated in a mixed genetic background (C57BL/6×A129). The three appropriate wildtype (LXRα+/+, LXRβ+/+) mouse lines were used as controls. Mice from each line were treated for seven days with 10 mg compound/kg body weight of the LXR agonist Compound 1: N-(2,2,2-trifluoroethyl)-N-[4-(2,2,2- trifluoro-1-hydroxy-1-trifluoromethylethyl)-phenyl]-benzene sulfonamide. […] Compound 1 was administered by daily oral gavage in a sesame oil/ethanol vehicle via a 1-cc syringe fitted with a 20G disposable feeding needle. Compound was solvated in ethanol (5% final volume) and brought up to final volume with sesame oil (Sigma, St. Louis, Mo.).
To determine the ability of Compound 1 to elevate serum triglycerides non-fasting mice were anesthetized with isofluorane and blood samples were obtained by retro-orbital plexus puncture. Blood samples were collected before the first dose and three hours after dosing on day 1, day 3 and day 7 into heparinized tubes. Samples were centrifuged to obtain plasma and stored at −20° C. Plasma triglyceride levels were determined using a colorimetric enzymatic assay adapted to a 96 well plate format (Infinity Triglyceride Reagent, Sigma, St. Louis, Mo.). Sigma glycerol standards (Sigma, St. Louis, Mo.) were use to generate standard curves. The absorbance of the samples and standards were read using a Multiskan plate reader.

peritoneal macrophages = assay: ApoA1-dependent cholesterol efflux assay (reverse cholesterol transport) in peritoneal macrophages; type: cell-based, mice; settings: 1.0 μM
From the text: The individual contributions of both receptors to macrophage gene expression were examined by first measuring the amount of mRNA encoding LXRα and LXRβ in thioglycolate-elicited peritoneal macrophages obtained from mixed wildtype mice. Thioglycolate-elicited peritoneal macrophages were isolated from mice 4 days after peritoneal injection of thioglycolate media. Peritoneal macrophages were harvested by lavage of the peritoneum with phosphate buffered saline (PBS), cells were washed, transferred to 60 mm culture plates and incubated at 37° C. in RPMI 1640 media (Life Technologies) containing 10% FBS, 2 mmol/L glutamine, 100 μg/mL streptomycin and 100 IU penicillin (Life Technologies). After 5 hours at 37° C., cells were washed 5 times with PBS to remove non-adherent cells and adherent cells were further incubated in RPMI 1640 media supplemented with 10% FBS for 24 hours. To determine the mRNA levels of LXRα and LXRβ, after 24 hours total RNA was isolated from cultured macrophages using RNeasy kits (QIAGEN Inc.) according to the supplier's total RNA isolation procedure. The RNA samples were further treated with deoxyribonuclease I to eliminate contaminating genomic DNA. LXRα and LXRβ mRNA levels were than analyzed by real-time based quantitative PCR using Perkin Elmer ABI Prism 7700 and Sequence Detection System software (Perkin Elmer). […] Since ABCA1 is involved in mediating reverse cholesterol transport, peritoneal macrophages isolated as described above and cultured for 24 hours in the absence or presence of LXR agonist (1.0 μM Compound 1) were examined in a cholesterol efflux assay which measures reverse cholesterol transport in vitro. Mouse peritoneal macrophages isolated as described above from wildtype (mixed and C57BL/6), LXRα−/− (C57BL/6), LXRβ−/−, and LXRαβ−/− mice were cultured in 96 well plates (5×10^4 cells/well) at 37° C. After 24 hours, cells were labeled for 48 hours with 0.2 μCi/ml ^14C-cholesterol in RPMI 1640 medium with 1% FBS. Following the labeling period, ^14C-cholesterol was removed and the cells were cultured for 24 hours in serum free RPMI 1640 media in the presence or absence of 10 μg/ml apolipoprotein A (ApoA1). In this assay ApoA1 acts as a cholesterol acceptor and mimics the cholesterol-accepting function performed by HDL particles in vivo. Following this incubation, the media is removed, cells are washed and than lysed with 0.2 M sodium hydroxide. To determine ApoA1-dependent cholesterol efflux, the amount of ^14C-cholesterol present in the media is divided by the total counts (media+cell lysate) and the value determined in the absence of ApoA is subtracted from the value determined in the presence of ApoA. […] No effect is observed upon elimination of LXRα alone.

[2] = test system: lipoprotein lipase (LPL) mRNA; assay: Liver lipoprotein lipase (LPL) mRNA by quantitative PCR in treated mice; type: in vivo; settings: 10 mg/kg daily oral; for LPL mRNA induction: day 7
From the text: as §1

For `O=S(=O)(c1ccccc1)N(CC(F)(F)F)c1ccc(C(O)(C(F)(F)F)C(F)(F)F)cc1` [Compound 1, N-(2,2,2-trifluoroethyl)-N-[4-(2,2,2-trifluoro-1-hydroxy-1-trifluoromethylethyl)-phenyl]-benzene sulfonamide], the “effect on serum triglyceride levels” value ([1]; LXRβ−/− mice) was “no effect on the ability of LXR agonists to elevate triglycerides”, the “effect on serum triglyceride levels” value ([1]; mice lacking LXRα (LXRα−/−, LXRαβ−/−)) was “elevates serum triglyceride levels only in mice that have LXRα” and the “effect on serum triglyceride levels” value ([1]; wildtype mice) was “elevates serum triglyceride levels”. For the same molecule, the “reverse cholesterol transport (cholesterol efflux)” value (“reverse cholesterol transport” for short) (peritoneal macrophages; LXRαβ−/− macrophages) was “further reduced”, the “reverse cholesterol transport” value (peritoneal macrophages; LXRα−/− (C57BL/6) macrophages) was “No effect” and the “reverse cholesterol transport” value (peritoneal macrophages; LXRβ−/− macrophages) was “significantly reduced”. The “reverse cholesterol transport” value (peritoneal macrophages; wildtype (mixed and C57BL/6) macrophages) was “stimulates reverse cholesterol transport”, the “LPL mRNA induction” value ([2]; LXRα−/− mice (C57BL/6 and A129)) was “completely blocks the pan-agonist induction of LPL” and the “LPL mRNA induction” value ([2]; LXRβ−/− mice) was “little or no effect”. The fold induction at 10 mg/kg ([2]; Mus musculus, 168 h, wildtype mice, day 7, read-out: LPL mRNA fold induction (+Compound 1/vehicle)) was 3 to 9.
